Publication PMC10216551 (2023)

Legend:
[1] = tested on: H3 (DNA, aptamer) GACGACTAAGCGGCGGTGTGGGCATTTTGGGCTTTTGTCGTCCCGATGCT; assay: ITC; details: 500 mM NaCl, 10 mM MgCl2, 50 mM HEPES pH 7.6, 25 °C
[2] = tested on: H1-14 (DNA, aptamer) GACGTAGCGGCGGTGTGGGCATTTTGGGCTAAAGTC; assay: ITC; details: 500 mM NaCl, 10 mM MgCl2; 50 mM HEPES pH 7.6, 25 °C; one-site fit
[3] = tested on: H1-21 (DNA, aptamer) GTAGCGGCGGTGTGGGCATTTTGGGCTAA; assay: ITC; details: 500 mM NaCl, 10 mM MgCl2; 50 mM HEPES pH 7.6, 25 °C; one-site fit
[4] = tested on: FAM-H1-8 (DNA, aptamer) GACGACGTAGCGGCGGTGTGGGCATTTTGGGCTAAAGTCGTC; assay: fluorescence, quencher strand displacement; details: 500 mM NaCl, 10 mM MgCl2, 50 mM HEPES pH 7.6, room temperature
[5] = tested on: H1-12 (DNA, aptamer) CGACGTAGCGGCGGTGTGGGCATTTTGGGCTAAAGTCG; assay: ITC; details: 500 mM NaCl, 10 mM MgCl2; 50 mM HEPES pH 7.6, 25 °C; one-site fit
[6] = tested on: H7 (DNA, aptamer) GACGACGTCCCGATGCTGCAATCGTAAACCCGTTATGTCGTCCCGATGCT; assay: ITC; details: 500 mM NaCl, 10 mM MgCl2; 50 mM HEPES pH 7.6, 25 °C; 10 μM aptamer, 0.33 mM 5-HMF in syringe
[7] = tested on: H1 (DNA, aptamer) GACGACGTAGCGGCGGTGTGGGCATTTTGGGCTAAAGTCGTCCCGATGCT; assay: ITC; details: 500 mM NaCl, 10 mM MgCl2, 50 mM HEPES pH 7.6, 25 °C
[8] = tested on: H1-8 (DNA, aptamer) GACGACGTAGCGGCGGTGTGGGCATTTTGGGCTAAAGTCGTC; assay: ITC; details: 500 mM NaCl, 10 mM MgCl2; 50 mM HEPES pH 7.6, 25 °C; one-site fit
[9] = tested on: H10 (DNA, aptamer) GACGACTAGAGGGGGCCCGTTATTCGGTGATGTCTTGTCGTCCCGATGCT; assay: ITC; details: 500 mM NaCl, 10 mM MgCl2; 50 mM HEPES pH 7.6, 25 °C; 10 μM aptamer, 0.33 mM 5-HMF in syringe
[10] = tested on: H2 (DNA, aptamer) GACGACTGTGGGCTGCCAAGGGCGCGTAGGGCGAAAGTCGTCCCGATGCT; assay: ITC; details: 500 mM NaCl, 10 mM MgCl2, 50 mM HEPES pH 7.6, 25 °C

Row | Kd ([1]; one-site fit) [µM] | Kd [2] [µM] | Kd [3] [µM] | Kd ([4]; apparent, BHQ1-cDNA displaced (1:2), 5-HMF 0–2000 μM) [µM] | Kd [5] [µM] | binding [6] | Kd ([7]; one-site fit) [µM] | Kd [8] [µM] | binding [9] | Kd ([10]; one-site fit) [µM] | binding ([1]; FF concentration not stated) | binding ([4]; BHQ1-cDNA as displaced strand, up to 100 μM FF) | binding ([7]; FF concentration not stated) | binding ([10]; FF concentration not stated) | SMILES
1 | 12.40 ± 2.70 | 6.50 ± 1.80 | 4.7 ± 0.6 | 64 | 1.22 ± 0.90 | no | 2.46 ± 1.90 | 1.79 ± 0.60 | no | 8.76 ± 2.50 | – | – | – | – | O=Cc1ccc(CO)o1
2 | – | – | – | – | – | – | – | – | – | – | no | no | no | no | O=Cc1ccco1
